From ChEMBL document CHEMBL5724696, “Autophagy assay results for EUbOPEN Chemogenomics Library” (2024)

Experiments:
Type in all cases: functional, Homo sapiens
TERT-RPE1 = experiment: (§1) Here: values are normalized to the negative (DMSO; defined as 0% autophagy induction) and positive (250nM Torin1; mTOR inhibitor; defined as maximal inducer of autophagy = 100%) control compounds and represented as % of autophagy induction. […] The impact of autophagy induction on cells is complex and depends on the affected target. As such, the magnitude of a phenotype may not be equally mirrored in the %-value of autophagy induction and vice versa. The dynamics of the induction may indicate the mode of activation: e.g. activation via phosphorylation or a signaling cascade may occur fast, while activation via transcription factors may take considerably longer. […] Of note, treatment concentrations may be sub-optimal for specific compounds, leading to false negative annotations.; conditions: Culturing Media DMEM/F12 (1:1), 1 % Penicillin/Streptomycin, 10% Fetal bovin serum Add-On: No, Screening Media Control DMEM/F12 (1:1), Screening Media Samples DMEM/F12 (1:1)
U2OS [1] = experiment: as §1; conditions: Culturing Media DMEM, 1 % Penicillin/Streptomycin, 10% Fetal bovin serum Add-On: No, Screening Media Control DMEM, Screening Media Samples DMEM
U2OS [2] = experiment: as §1; conditions: Culturing Media DMEM, 1 % Penicillin/Streptomycin, 10% Fetal bovin serum Add-On: No, Screening Media Control DMEM, Screening Media Samples DMEM; remark: listed apart in the source
[3] = Compound Concentration 0.5 uM, Timepoint 12 hours
[4] = Compound Concentration 0.5 uM, Timepoint 24 hours
[5] = Compound Concentration 0.5 uM, Timepoint 36 hours
[6] = Compound Concentration 0.5 uM, Timepoint 60 hours
[7] = Compound Concentration 2 uM, Timepoint 12 hours
[8] = Compound Concentration 2 uM, Timepoint 24 hours
[9] = Compound Concentration 2 uM, Timepoint 36 hours
[10] = Compound Concentration 2 uM, Timepoint 60 hours
[11] = Compound Concentration 10 uM, Timepoint 12 hours
[12] = Compound Concentration 10 uM, Timepoint 24 hours
[13] = Compound Concentration 10 uM, Timepoint 36 hours
[14] = Compound Concentration 10 uM, Timepoint 60 hours

| SMILES | autophagy induction (TERT-RPE1; [3]) [%] | autophagy induction (TERT-RPE1; [4]) [%] | autophagy induction (TERT-RPE1; [5]) [%] | autophagy induction (TERT-RPE1; [6]) [%] | autophagy induction (TERT-RPE1; [7]) [%] | autophagy induction (TERT-RPE1; [8]) [%] | autophagy induction (TERT-RPE1; [9]) [%] | autophagy induction (TERT-RPE1; [10]) [%] | autophagy induction (TERT-RPE1; [11]) [%] | autophagy induction (TERT-RPE1; [12]) [%] | autophagy induction (TERT-RPE1; [13]) [%] | autophagy induction (TERT-RPE1; [14]) [%] | autophagy induction (U2OS [1]; [3]) [%] | autophagy induction (U2OS [1]; [4]) [%] | autophagy induction (U2OS [1]; [5]) [%] | autophagy induction (U2OS [1]; [6]) [%] | autophagy induction (U2OS [1]; [7]) [%] | autophagy induction (U2OS [1]; [8]) [%] | autophagy induction (U2OS [1]; [9]) [%] | autophagy induction (U2OS [1]; [10]) [%] | also measured |
| --- | --- | --- | --- | --- | --- | --- | --- | --- | --- | --- | --- | --- | --- | --- | --- | --- | --- | --- | --- | --- | --- |
| CS(=O)(=O)NC[C@H]1CC[C@H](Nc2nc3c(s2)CCSc2ccccc2-3)CC1 | -4.034 | -8.281 | -9.381 | -11.7228 | -3.533 | -4.081 | -4.248 | -9.574 | -3.228 | -1.909 | 1.0286 | 5.565 | -4.815 | -2.571 | -1.135 | -2.5406 | -10.1359 | -5.225 | -2.722 | -2.833 | autophagy induction (U2OS [1]; [11]): -13.0428%; autophagy induction (U2OS [1]; [12]): -4.43%; autophagy induction (U2OS [1]; [13]): -4.437%; autophagy induction (U2OS [1]; [14]): -6.0772%; autophagy induction (U2OS [2]; [3]): 7.101%; autophagy induction (U2OS [2]; [4]): 7.652%; autophagy induction (U2OS [2]; [5]): 1.469%; autophagy induction (U2OS [2]; [6]): -11.3587%; autophagy induction (U2OS [2]; [7]): 8.098%; autophagy induction (U2OS [2]; [8]): 3.777%; autophagy induction (U2OS [2]; [9]): 0.6599%; autophagy induction (U2OS [2]; [10]): -6.18%; autophagy induction (U2OS [2]; [11]): 6.84%; autophagy induction (U2OS [2]; [12]): 4.331%; autophagy induction (U2OS [2]; [13]): 3.398%; autophagy induction (U2OS [2]; [14]): 7.256% |
| CSc1ccc(C(=O)N[C@@H]2CCCC[C@@H]2NC(=O)CNC(=O)c2cc(C(F)(F)F)ccc2NC(=O)NC(C)C)cc1 | -7.317 | -10.4362 | -10.5931 | -10.1253 | -7.697 | -8.893 | -11.9452 | -15.6367 | -4.351 | -5.968 | -5.344 | -2.567 | -1.519 | -1.673 | -0.1292 | -0.4268 | 6.41 | -0.3397 | 0.2664 | 0.6149 | autophagy induction (U2OS [1]; [11]): -6.202%; autophagy induction (U2OS [1]; [12]): -3.0141%; autophagy induction (U2OS [1]; [13]): -1.6234%; autophagy induction (U2OS [1]; [14]): -0.3642%; autophagy induction (U2OS [2]; [3]): -3.4763%; autophagy induction (U2OS [2]; [4]): -6.206%; autophagy induction (U2OS [2]; [5]): -3.128%; autophagy induction (U2OS [2]; [6]): -12.7895%; autophagy induction (U2OS [2]; [7]): 8.51%; autophagy induction (U2OS [2]; [8]): 8.515%; autophagy induction (U2OS [2]; [9]): 8.998%; autophagy induction (U2OS [2]; [10]): -1.4223%; autophagy induction (U2OS [2]; [11]): 3.613%; autophagy induction (U2OS [2]; [12]): 5.882%; autophagy induction (U2OS [2]; [13]): 6.117%; autophagy induction (U2OS [2]; [14]): 10.5977% |
| N#Cc1c(N)nc(SCC(N)=O)c(C#N)c1-c1ccc(OCC2CC2)cc1 | -0.3512 | -0.4647 | -3.4426 | -13.7976 | 6.426 | 7.278 | 5.568 | -4.471 | 18.2835 | 21.4433 | 22.9122 | 26.9726 | 1.815 | -1.199 | -2.125 | -2.448 | 4.971 | 0.9116 | -0.4866 | -0.2456 | autophagy induction (U2OS [1]; [11]): 12.9304%; autophagy induction (U2OS [1]; [12]): 7.609%; autophagy induction (U2OS [1]; [13]): 1.394%; autophagy induction (U2OS [1]; [14]): 0.5911%; autophagy induction (U2OS [2]; [3]): 13.384%; autophagy induction (U2OS [2]; [4]): 10.3272%; autophagy induction (U2OS [2]; [5]): 7.6764%; autophagy induction (U2OS [2]; [6]): 5.5559%; autophagy induction (U2OS [2]; [7]): 6.979%; autophagy induction (U2OS [2]; [8]): 4.233%; autophagy induction (U2OS [2]; [9]): 4.058%; autophagy induction (U2OS [2]; [10]): 1.654%; autophagy induction (U2OS [2]; [11]): 28.6221%; autophagy induction (U2OS [2]; [12]): 28.519%; autophagy induction (U2OS [2]; [13]): 26.7564%; autophagy induction (U2OS [2]; [14]): 32.3548% |
